Reference: patent publication US10183014B2, “Ocular formulations for drug-delivery and protection of the anterior segment of the eye” (PanOptica, Inc., priority 2014, dated 2019)
Read-outs that look alike come from different tables or passages of the source.

Key:
[1] = Ocular pharmacokinetics of formulations, Example 20-5; assay type: in vivo, Dutch Belted rabbits; settings: 50 μm particles, TRIS 0.60%, glycerol 2%, HEC 0.2%, HPMC 0.08%, Vitamin K3 1 μM, pH 6, QD for 4 days, 1 hr post dose on Day 5
Procedure: The study design (Table 19-1) consisted of forty-seven (47) Dutch Belted rabbits, each receiving a 30 μL bilateral topical ocular dose. Various suspension formulations of the present application were evaluated and compared against a cyclodextrin-based eye drops solution (Control Group 1, Table 19-1). Formula II or Compound-I was used in the test suspensions as well as the Eye Drops solution.
Ocular sampling occurred one hour following the first daily dose on Day 5 for all groups. Whole blood samples using K2EDTA as an anticoagulant were collected from all animals on Day 5, 1 hour post dose. The whole blood was placed on ice until samples were spun in a centrifuge to separate the plasma. Aqueous humor, conjunctiva, cornea, central retina, peripheral retina, central choroid, and peripheral choroid samples were collected following necropsy. Samples were then frozen at −70° C. or lower. For all Groups 1-15, plasma, central retina, central choroid, and cornea samples were assayed. For Group 5 only, samples were analyzed for Vitamin K3.
An analytical method for the analysis of Vitamin K3 was determined in plasma, central retina, central choroid, and cornea samples from Group 5 animals. A calibration curve prepared in control vitreous humor was used to determine the concentration of Vitamin K3. Internal standard (IS) responses were inconsistent for the central choroid and plasma samples. Thus, positive plasma results were likely due to the reduced IS response.

[2] = biological target: KDR (VEGFR-2) (Homo sapiens, UniProt P35968); assay: In vitro inhibition of tyrosine kinases; assay type: biochemical; settings: 300 nM (170.67 ng/mL)
[3] = biological target: ABL1 E255K (Homo sapiens, UniProt P00519, E255K); assay: In vitro inhibition of tyrosine kinases; assay type: biochemical; settings: read-out: Mean % Inhibition at 1 μM Compound-I; 1 μM (568.9 ng/mL)
[4] = biological target: MAP4K5 (KHS1) (Homo sapiens, UniProt Q9Y4K4); assay: In vitro inhibition of tyrosine kinases; assay type: biochemical; settings: read-out: Mean % Inhibition at 1 μM Compound-I; 1 μM (568.9 ng/mL)
[5] = 1- to 5-day PK with topical ocular Compound-I formulations (Example 5); assay type: in vivo, Dutch Belted rabbits; settings: for concentration at 0.5 h / concentration at 8 h / concentration at 24 h / concentration at 4 h / concentration at 2 h / concentration at 1 h: Dutch Belted, rabbit, topical
Procedure: On day 1, Groups 1, 2, 4-6, 8, 10, 11, 13, 15, and 17 received one dose (q.d.) for either one (1) or four (4) days.
Peripheral retina and peripheral choroid samples were assayed only for Groups 1-8, 12, 14, and 16 per study protocol.

[6] = biological target: LYN A (Homo sapiens, UniProt P07948); assay: In vitro inhibition of tyrosine kinases; assay type: biochemical; settings: read-out: Mean % Inhibition at 1 μM Compound-I; 1 μM (568.9 ng/mL)
[7] = biological target: PTK6 (Brk) (Homo sapiens, UniProt Q13882); assay: In vitro inhibition of tyrosine kinases; assay type: biochemical; settings: read-out: Mean % Inhibition at 1 μM Compound-I; 1 μM (568.9 ng/mL)
[8] = Groups 1, 5: one dose day 1, 0.5 hr post-dose
[9] = Groups 1, 5: one dose day 1, 24 hr post-dose

Chain of MAP4K5 (KHS1) (Q9Y4K4 whole entry, species assumed): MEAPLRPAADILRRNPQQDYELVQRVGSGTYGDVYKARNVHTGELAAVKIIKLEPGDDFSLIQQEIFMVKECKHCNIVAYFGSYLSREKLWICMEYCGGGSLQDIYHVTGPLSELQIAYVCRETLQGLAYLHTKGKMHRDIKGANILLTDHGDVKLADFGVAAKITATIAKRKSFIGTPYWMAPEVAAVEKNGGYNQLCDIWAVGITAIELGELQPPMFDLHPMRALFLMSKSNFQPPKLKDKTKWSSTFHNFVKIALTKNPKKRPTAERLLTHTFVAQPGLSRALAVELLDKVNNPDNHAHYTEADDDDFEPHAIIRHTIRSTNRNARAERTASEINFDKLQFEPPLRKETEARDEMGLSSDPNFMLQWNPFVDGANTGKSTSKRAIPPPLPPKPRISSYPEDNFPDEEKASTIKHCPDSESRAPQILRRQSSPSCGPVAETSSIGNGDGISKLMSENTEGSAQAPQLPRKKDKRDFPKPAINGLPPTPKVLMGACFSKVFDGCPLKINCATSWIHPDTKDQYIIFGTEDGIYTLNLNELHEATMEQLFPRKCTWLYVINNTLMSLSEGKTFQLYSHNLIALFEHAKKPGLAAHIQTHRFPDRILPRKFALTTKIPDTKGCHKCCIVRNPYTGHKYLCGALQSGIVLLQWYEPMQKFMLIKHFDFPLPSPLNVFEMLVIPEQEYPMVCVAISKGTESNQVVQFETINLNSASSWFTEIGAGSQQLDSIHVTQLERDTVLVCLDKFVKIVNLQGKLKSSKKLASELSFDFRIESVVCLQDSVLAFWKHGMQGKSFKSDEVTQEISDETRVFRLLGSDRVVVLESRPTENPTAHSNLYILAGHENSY
Chain of KDR (VEGFR-2) (P35968 20-1356): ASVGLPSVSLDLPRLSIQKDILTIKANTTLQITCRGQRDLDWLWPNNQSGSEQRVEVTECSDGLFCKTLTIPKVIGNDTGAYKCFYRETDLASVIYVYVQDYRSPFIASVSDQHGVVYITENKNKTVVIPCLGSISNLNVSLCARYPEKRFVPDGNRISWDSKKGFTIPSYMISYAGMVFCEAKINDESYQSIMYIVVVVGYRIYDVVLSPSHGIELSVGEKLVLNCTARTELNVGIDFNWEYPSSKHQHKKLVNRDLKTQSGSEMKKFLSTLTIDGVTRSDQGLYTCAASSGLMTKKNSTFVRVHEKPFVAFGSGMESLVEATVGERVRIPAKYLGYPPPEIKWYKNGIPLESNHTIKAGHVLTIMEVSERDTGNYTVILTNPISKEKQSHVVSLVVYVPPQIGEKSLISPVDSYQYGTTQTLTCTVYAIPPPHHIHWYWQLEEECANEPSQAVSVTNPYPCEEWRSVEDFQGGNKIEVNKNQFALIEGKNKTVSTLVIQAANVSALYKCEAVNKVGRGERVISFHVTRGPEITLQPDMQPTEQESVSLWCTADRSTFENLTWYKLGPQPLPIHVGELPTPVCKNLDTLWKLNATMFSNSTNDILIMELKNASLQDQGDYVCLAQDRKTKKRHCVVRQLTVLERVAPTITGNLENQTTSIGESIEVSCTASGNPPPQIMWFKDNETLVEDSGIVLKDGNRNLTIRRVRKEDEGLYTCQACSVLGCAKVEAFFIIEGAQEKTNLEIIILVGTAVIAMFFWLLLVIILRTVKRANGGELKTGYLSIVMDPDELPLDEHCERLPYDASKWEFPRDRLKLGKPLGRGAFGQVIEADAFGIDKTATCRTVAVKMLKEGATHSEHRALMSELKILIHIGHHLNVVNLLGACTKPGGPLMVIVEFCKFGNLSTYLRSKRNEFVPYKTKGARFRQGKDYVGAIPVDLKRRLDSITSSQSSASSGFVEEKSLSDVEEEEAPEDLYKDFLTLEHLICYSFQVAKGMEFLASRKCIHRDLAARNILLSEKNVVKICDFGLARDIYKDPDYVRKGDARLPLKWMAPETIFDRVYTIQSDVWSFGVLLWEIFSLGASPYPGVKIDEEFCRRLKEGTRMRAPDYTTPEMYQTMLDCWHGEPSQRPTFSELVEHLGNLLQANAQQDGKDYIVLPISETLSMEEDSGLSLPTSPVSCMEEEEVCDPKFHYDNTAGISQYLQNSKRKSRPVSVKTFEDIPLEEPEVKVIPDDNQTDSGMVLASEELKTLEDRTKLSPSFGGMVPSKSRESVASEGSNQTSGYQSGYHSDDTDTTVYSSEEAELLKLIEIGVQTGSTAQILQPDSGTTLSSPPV
Chain of ABL1 E255K (P00519 whole entry E255K): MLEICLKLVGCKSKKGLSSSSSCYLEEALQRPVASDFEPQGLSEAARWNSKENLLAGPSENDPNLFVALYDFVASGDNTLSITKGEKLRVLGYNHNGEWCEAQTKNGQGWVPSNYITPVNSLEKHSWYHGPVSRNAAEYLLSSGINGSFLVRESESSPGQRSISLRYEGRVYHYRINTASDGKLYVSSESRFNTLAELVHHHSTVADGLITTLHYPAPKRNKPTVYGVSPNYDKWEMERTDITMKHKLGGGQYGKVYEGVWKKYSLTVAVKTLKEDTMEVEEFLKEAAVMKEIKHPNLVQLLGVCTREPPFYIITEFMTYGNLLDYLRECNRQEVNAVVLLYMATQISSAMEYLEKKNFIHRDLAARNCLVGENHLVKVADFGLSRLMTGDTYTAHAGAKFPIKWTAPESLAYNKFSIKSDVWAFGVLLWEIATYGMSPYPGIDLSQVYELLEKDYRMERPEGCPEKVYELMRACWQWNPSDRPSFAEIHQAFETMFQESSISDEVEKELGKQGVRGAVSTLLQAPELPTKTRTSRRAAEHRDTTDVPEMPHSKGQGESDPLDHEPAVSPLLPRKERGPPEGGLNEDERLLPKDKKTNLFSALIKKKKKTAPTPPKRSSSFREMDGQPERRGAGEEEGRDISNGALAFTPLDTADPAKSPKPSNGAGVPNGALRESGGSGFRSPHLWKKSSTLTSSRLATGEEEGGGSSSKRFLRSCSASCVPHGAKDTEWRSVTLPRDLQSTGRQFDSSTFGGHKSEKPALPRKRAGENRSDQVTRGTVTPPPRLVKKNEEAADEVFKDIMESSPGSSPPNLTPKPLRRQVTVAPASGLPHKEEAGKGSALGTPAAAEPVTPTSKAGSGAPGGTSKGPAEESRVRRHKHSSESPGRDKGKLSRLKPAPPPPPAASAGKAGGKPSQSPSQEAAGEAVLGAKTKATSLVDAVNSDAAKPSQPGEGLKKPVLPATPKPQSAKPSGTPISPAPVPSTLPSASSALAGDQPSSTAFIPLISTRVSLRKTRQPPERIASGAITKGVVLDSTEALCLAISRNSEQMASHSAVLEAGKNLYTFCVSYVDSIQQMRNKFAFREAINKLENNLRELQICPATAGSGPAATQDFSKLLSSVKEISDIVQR
Chain of PTK6 (Brk) (Q13882 whole entry, species assumed): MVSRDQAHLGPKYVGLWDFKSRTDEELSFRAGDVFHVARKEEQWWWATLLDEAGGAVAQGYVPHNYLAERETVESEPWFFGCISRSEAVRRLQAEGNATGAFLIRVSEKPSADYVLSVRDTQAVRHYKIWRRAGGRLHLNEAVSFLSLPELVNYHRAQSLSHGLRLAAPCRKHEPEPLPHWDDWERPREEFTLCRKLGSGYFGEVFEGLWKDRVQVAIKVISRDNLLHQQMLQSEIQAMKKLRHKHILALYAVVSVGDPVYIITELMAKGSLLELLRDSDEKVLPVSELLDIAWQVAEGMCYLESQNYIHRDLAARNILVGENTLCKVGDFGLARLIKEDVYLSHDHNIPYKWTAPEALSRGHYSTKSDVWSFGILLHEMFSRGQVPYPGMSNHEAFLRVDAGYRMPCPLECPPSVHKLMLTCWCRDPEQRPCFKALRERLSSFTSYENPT
Chain of LYN A (P07948 whole entry, species assumed): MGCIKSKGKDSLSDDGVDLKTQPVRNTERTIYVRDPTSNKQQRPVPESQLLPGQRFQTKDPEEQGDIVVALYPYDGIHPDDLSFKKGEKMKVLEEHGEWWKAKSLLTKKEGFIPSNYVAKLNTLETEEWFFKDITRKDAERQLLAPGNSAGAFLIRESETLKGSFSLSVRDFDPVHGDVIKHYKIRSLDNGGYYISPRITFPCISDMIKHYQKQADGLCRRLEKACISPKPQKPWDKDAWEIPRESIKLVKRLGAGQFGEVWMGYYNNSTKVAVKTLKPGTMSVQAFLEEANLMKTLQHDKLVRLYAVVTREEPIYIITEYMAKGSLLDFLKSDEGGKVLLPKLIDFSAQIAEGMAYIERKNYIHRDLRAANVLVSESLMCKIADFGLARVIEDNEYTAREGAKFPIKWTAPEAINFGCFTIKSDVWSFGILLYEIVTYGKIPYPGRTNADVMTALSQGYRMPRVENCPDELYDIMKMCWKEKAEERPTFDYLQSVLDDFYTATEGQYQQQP

SMILES: Cl.NC(=O)c1c(OCc2c(F)cc(Br)cc2F)nsc1NC(=O)NCCCCN1CCCC1 [Compound-I, 3-[(4-bromo-2,6-difluorophenyl)methoxy]-5-[[[[4-(1-pyrrolidinyl)butyl]amino]carbonyl]amino]-4-isothiazolecarboxamide hydrochloride]
- concentration at 1 h ([1]; Group 14 (different batch of Compound-I): 4 mg/mL suspension, read-out: Central Choroid concentration): 203 nM
- concentration at 1 h ([1]; Group 14 (different batch of Compound-I): 4 mg/mL suspension, read-out: Central Retina concentration): 38.4 nM
- concentration at 1 h ([1]; Group 14 (different batch of Compound-I): 4 mg/mL suspension, read-out: Cornea concentration): 3880 nM
- Plasma concentration ([1]; Group 15 (different batch of Compound-I): 4 mg/mL suspension): 4.69 nM
- concentration at 1 h ([1]; Group 15 (different batch of Compound-I): 4 mg/mL suspension, read-out: Central Choroid concentration): 196 nM
- concentration at 1 h ([1]; Group 15 (different batch of Compound-I): 4 mg/mL suspension, read-out: Central Retina concentration): 63 nM
- concentration at 1 h ([1]; Group 15 (different batch of Compound-I): 4 mg/mL suspension, read-out: Cornea concentration): 4230 nM
- Mean % Inhibition at 300 nM Compound-I [2]: completely inhibited
- inhibition at 1 µM [3]: 90%
- inhibition at 1 µM [4]: 94%
- concentration at 0.5 h ([5]; aqueous humor, 30 μL (bilateral), Groups 1, 5: one dose day 1, 0.5 hr post-dose, read-out: Average Concentration Aqueous Humor): 1.62 nM
- concentration at 8 h ([5]; aqueous humor, 30 μL (bilateral), Groups 1, 5: one dose day 1, 8 hr post-dose, read-out: Average Concentration Aqueous Humor): 6.67 nM
- concentration at 24 h ([5]; aqueous humor, 30 μL (bilateral), Groups 1, 5: one dose day 1, 24 hr post-dose, read-out: Average Concentration Aqueous Humor): 3.03 nM
- concentration at 4 h ([5]; aqueous humor, 30 μL bilateral (each eye), Group 5: one dose day 1, 4 hr post-dose, read-out: Average Concentration Aqueous Humor): 9.11 nM
- concentration at 2 h ([5]; aqueous humor, 30 μL bilateral (each eye), Groups 1, 5: one dose day 1, 2 hr post-dose, read-out: Average Concentration Aqueous Humor): 8.62 nM
- concentration at 1 h ([5]; aqueous humor, 30 μL bilateral, Groups 1, 5: one dose day 1, 1 hr post-dose, read-out: Average Concentration Aqueous Humor): 1.08 nM
- concentration at 1 h ([5]; central choroid, 30 μL (bilateral), q.d. groups (2,4,6,8,10,11,13,15,17), 4 days, 1 hr after day 5 morning dose, read-out: Average Concentration Central Choroid): 196 nM
- concentration at 24 h ([5]; central choroid, 30 μL (bilateral, each eye), q.d. groups (2,6,8,11,13), 4 days, 24 hr after day 5 morning dose, read-out: Average Concentration Central Choroid): 319 nM
- concentration at 24 h ([5]; central choroid, 30 μL per eye (bilateral), b.i.d. groups (3,7), 4 days, 24 hr after day 5 morning dose, read-out: Average Concentration Central Choroid): 283 nM
- concentration at 24 h ([5]; central choroid, 30 μL, q.d. groups (2,6,8,11,13), 4 days, 24 hr after day 5 morning dose, read-out: Average Concentration Central Choroid): 218 nM
- concentration at 8 h ([5]; central retina, 30 μL (bilateral), Groups 1, 5: one dose day 1, 8 hr post-dose, read-out: Average Concentration Central Retina): 30.4 nM
- concentration at 1 h ([5]; central retina, 30 μL (bilateral), q.d. groups (2,4,6,8,10,11,13,15,17), 4 days, 1 hr after day 5 morning dose, read-out: Average Concentration Central Retina): 36.3 nM
- concentration at 24 h ([5]; central retina, 30 μL (bilateral), q.d. groups (2,6,8,11,13), 4 days, 24 hr after day 5 morning dose, read-out: Average Concentration Central Retina): 24.1 nM
- concentration at 4 h ([5]; central retina, 30 μL bilateral (each eye), Group 5: one dose day 1, 4 hr post-dose, read-out: Average Concentration Central Retina): 29.9 nM
- concentration at 2 h ([5]; central retina, 30 μL bilateral (each eye), Groups 1, 5: one dose day 1, 2 hr post-dose, read-out: Average Concentration Central Retina): 35.4 nM
- concentration at 24 h ([5]; central retina, 30 μL per eye (bilateral), b.i.d. groups (3,7), 4 days, 24 hr after day 5 morning dose, read-out: Average Concentration Central Retina): 29.2 nM
- concentration at 8 h ([5]; central retina, 30 μL per eye (bilateral), q.d. groups (2,6), 4 days, 8 hr after day 5 morning dose, read-out: Average Concentration Central Retina): 38 nM
- concentration at 24 h ([5]; central retina, 30 μL per eye (bilateral), q.d. groups (2,6,8,11,13), 4 days, 24 hr after day 5 morning dose, read-out: Average Concentration Central Retina): 24.6 nM
- concentration at 1 h ([5]; central retina, 30 μL, b.i.d. groups (3,7,9,12,14,16), 4 days, 1 hr after day 5 morning dose, read-out: Average Concentration Central Retina): 40.7 nM
- concentration at 4 h ([5]; cornea, 30 μL (bilateral), Group 5: one dose day 1, 4 hr post-dose, read-out: Average Concentration Cornea): 14100 nM
- concentration at 2 h ([5]; cornea, 30 μL bilateral (each eye), Groups 1, 5: one dose day 1, 2 hr post-dose, read-out: Average Concentration Cornea): 28100 nM
- concentration at 1 h ([5]; cornea, 30 μL bilateral, Groups 1, 5: one dose day 1, 1 hr post-dose, read-out: Average Concentration Cornea): 16900 nM
- concentration at 4 h ([5]; peripheral choroid, 30 μL (bilateral), Group 5: one dose day 1, 4 hr post-dose, read-out: Average Concentration Peripheral Choroid): 77.5 nM
- concentration at 8 h ([5]; peripheral choroid, 30 μL (bilateral), Groups 1, 5: one dose day 1, 8 hr post-dose, read-out: Average Concentration Peripheral Choroid): 87.4 nM
- concentration at 24 h ([5]; peripheral choroid, 30 μL (bilateral), Groups 1, 5: one dose day 1, 24 hr post-dose, read-out: Average Concentration Peripheral Choroid): 88 nM
- concentration at 1 h ([5]; peripheral choroid, 30 μL bilateral, Groups 1, 5: one dose day 1, 1 hr post-dose, read-out: Average Concentration Peripheral Choroid): 47.3 nM
- concentration at 24 h ([5]; peripheral choroid, 30 μL per eye (bilateral), b.i.d. groups (3,7), 4 days, 24 hr after day 5 morning dose, read-out: Average Concentration Peripheral Choroid): 892 nM
- concentration at 1 h ([5]; peripheral choroid, 30 μL per eye (bilateral), b.i.d. groups (3,7,12,14,16), 4 days, 1 hr after day 5 morning dose, read-out: Average Concentration Peripheral Choroid): 765 nM
- concentration at 8 h ([5]; peripheral retina, 30 μL (bilateral), Groups 1, 5: one dose day 1, 8 hr post-dose, read-out: Average Concentration Peripheral Retina): 33.3 nM
- concentration at 24 h ([5]; peripheral retina, 30 μL (bilateral), Groups 1, 5: one dose day 1, 24 hr post-dose, read-out: Average Concentration Peripheral Retina): 15.1 nM
- concentration at 1 h ([5]; peripheral retina, 30 μL (bilateral), q.d. groups (2,4,6,8), 4 days, 1 hr after day 5 morning dose, read-out: Average Concentration Peripheral Retina): 96.1 nM
- concentration at 4 h ([5]; peripheral retina, 30 μL bilateral (each eye), Group 5: one dose day 1, 4 hr post-dose, read-out: Average Concentration Peripheral Retina): 31.2 nM
- concentration at 0.5 h ([5]; peripheral retina, 30 μL bilateral, Groups 1, 5: one dose day 1, 0.5 hr post-dose, read-out: Average Concentration Peripheral Retina): 22.7 nM
- concentration at 8 h ([5]; peripheral retina, 30 μL per eye (bilateral), q.d. groups (2,6), 4 days, 8 hr after day 5 morning dose, read-out: Average Concentration Peripheral Retina): 50.8 nM
- concentration at 1 h ([5]; peripheral retina, 30 μL, b.i.d. groups (3,7,12,14,16), 4 days, 1 hr after day 5 morning dose, read-out: Average Concentration Peripheral Retina): 108 nM
- Average Concentration Central Choroid ([5]; Group 5: one dose day 1, 4 hr post-dose): <LLOQ
- Average Concentration Central Choroid [5, 8]: <LLOQ
- Average Concentration Peripheral Choroid [5, 8]: <LLOQ
- Average Concentration Central Choroid ([5]; Groups 1, 5: one dose day 1, 1 hr post-dose): <LLOQ
- Average Concentration Central Choroid ([5]; Groups 1, 5: one dose day 1, 2 hr post-dose): <LLOQ
- Average Concentration Central Choroid ([5]; Groups 1, 5: one dose day 1, 8 hr post-dose): <LLOQ
- Average Concentration Central Choroid [5, 9]: <LLOQ
- Average Concentration Central Retina [5, 9]: <LLOQ
- inhibition at 1 µM [6]: 81%
- inhibition at 1 µM [7]: 88%
